Values of other authors in EP4781989A1, “POSACONAZOLE SOLID DISPERSION AND PREPARATION METHOD THEREFOR” (BEIJING DELIVERY PHARMACEUTICAL TECHNOLOGY CO., LTD, priority 2023, dated 2024).
Like-named read-outs stand apart in the source and are kept apart here.

- solubility (at about pH 6.4 or higher): less than 1 µg/mL
- solubility (gastric environment with about pH 1): about 0.8 mg/mL
SMILES: CC[C@@H]([C@H](C)O)n1ncn(-c2ccc(N3CCN(c4ccc(OC[C@@H]5CO[C@@](Cn6cncn6)(c6ccc(F)cc6F)C5)cc4)CC3)cc2)c1=O [Posaconazole]
